The target of the experiment is T1, human FSH receptor (Homo sapiens, UniProt P23945).
T1 construct: expressed in transfected cells; host or cells: CHO (Chinese Hamster Ovary) cells, stably transfected, cotransfected with CRE-luciferase reporter
T1 sequence (P23945 18-695): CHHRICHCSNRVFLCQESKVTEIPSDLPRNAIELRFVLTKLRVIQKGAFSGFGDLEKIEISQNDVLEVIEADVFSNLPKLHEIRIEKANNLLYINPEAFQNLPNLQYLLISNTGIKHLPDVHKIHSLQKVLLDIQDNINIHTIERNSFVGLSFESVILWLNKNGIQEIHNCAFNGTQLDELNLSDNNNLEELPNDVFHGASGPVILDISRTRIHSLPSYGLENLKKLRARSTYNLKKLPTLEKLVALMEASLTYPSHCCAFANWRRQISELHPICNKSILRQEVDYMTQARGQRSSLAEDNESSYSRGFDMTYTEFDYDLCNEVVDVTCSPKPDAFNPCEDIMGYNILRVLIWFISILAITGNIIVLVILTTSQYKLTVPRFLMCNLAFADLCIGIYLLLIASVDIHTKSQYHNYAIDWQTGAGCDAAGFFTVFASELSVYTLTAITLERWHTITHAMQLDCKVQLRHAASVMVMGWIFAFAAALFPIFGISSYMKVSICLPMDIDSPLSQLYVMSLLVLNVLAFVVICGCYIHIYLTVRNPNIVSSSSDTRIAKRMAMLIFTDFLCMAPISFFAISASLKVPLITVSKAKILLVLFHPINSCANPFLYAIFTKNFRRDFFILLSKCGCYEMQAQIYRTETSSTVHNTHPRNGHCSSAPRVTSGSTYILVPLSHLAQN
Put plainly: Agonistic activity at the human FSH receptor expressed in CHO cells (CRE-luciferase reporter). It is filed as cell-based. The conditions noted are these: CHO cells stably transfected with human FSH receptor and CRE/luciferase reporter; 4 hours incubation; pEC50 is -log EC50; read-out: hFSHRago (CHO luc) pEC50 (converted). An excerpt:
The term EC50 means the concentration of the test compound that elicits half-maximal (50%) stimulation compared to the compound's maximally attainable effect. pEC50 is the negative log of EC50. The values can be determined e.g. in a cell line transfected with a FSH receptor gene and cotransfected with a cAMP responsive element/promoter directing the expression of a reporter gene. For the determination a software program such as MathIQ (version 2.0, ID Business Solutions Limited) can be used.
Agonistic activity of the compounds at the human FSH receptor was determined in Chinese Hamster Ovary (CHO) cells stably transfected with the human FSH receptor and cotransfected with a cAMP responsive element (CRE)/promotor directing the expression of a firefly luciferase reporter gene. Binding of the compounds to the Gs protein-coupled FSH receptor will result in an increase of cAMP, which in turn will induce an increased transactivation of the luciferase reporter. Cells (7,500 cells/well of a 384 well plate) were incubated in Dulbecco' minimal essential F12 modified medium (Invitrogen), supplemented with 1 μg/ml bovine insulin, 5 μg/ml human apo-transferrin, 80 U/ml penicillin G and 80 μg/ml streptomycin with the test compounds (concentration between 0.0316 nM and 10.0 μM) in duplicate in a humidified atmosphere (95%) at 5-7% CO2 and 37° C. The final concentration of DMSO was 1%. After 4 hours of incubation, plates were allowed to adjust to room temperature for 1 hour. Then, Luclite (PerkinElmer) solution was added to the wells and cells were allowed to lyse for at least 1 hour at room temperature. Subsequently, luciferase activity was measured in a luminescence counter. The signal is expressed as counts per second (cps). The EC50 (concentration of the test compound that elicits half-maximal (50%) luciferase stimulation compared to the compound's maximally attainable effect) and efficacy values (maximal effect of the test compound as percentage of the maximal effect of recombinant human FSH) of the compounds were determined using the software program MathIQ (version 2.0, ID Business Solutions Limited). pEC50 data (pEC50 is −log EC50) are indicated at the synthesis examples.

The structures appear in SMILES notation.

With `COc1cc2c(cc1-n1cc(CCO)nn1)-c1c(-c3cccs3)c3c(n1CC2)C(=O)N(C(C)(C)C)CCCC3` [Compound 20d, 9-tert-butyl-14-(thien-2-yl)-2-(4-(2-hydroxyethyl)-1H-1,2,3-triazol-1-yl)-3-methoxy-5,6,10,11,12,13-hexahydroazocino[4′,3′:4,5]pyrrolo[2,1-a]isoquinolin-8(9H)-one], the EC50 was 0.589 nM.
The figure for `COc1cc2c(cc1-n1cc(C[C@H](O)CO)nn1)-c1c(-c3cccs3)c3c(n1CC2)C(=O)N(C(C)(C)C)CCCC3` [Compound 20f, (S)-9-tert-butyl-14-(thien-2-yl)-2-(4-(2,3-dihydroxypropyl)-1H-1,2,3-triazol-1-yl)-3-methoxy-5,6,10,11,12,13-hexahydroazocino[4′,3′:4,5]pyrrolo[2,1-a]isoquinolin-8(9H)-one] is 4.07 nM; for `COc1cc2c(cc1-n1cc(C[C@@H](O)CO)nn1)-c1c(-c3cccs3)c3c(n1CC2)C(=O)N(C(C)(C)C)CCCC3` [Compound 20g, (R)-9-tert-butyl-14-(thien-2-yl)-2-(4-(2,3-dihydroxypropyl)-1H-1,2,3-triazol-1-yl)-3-methoxy-5,6,10,11,12,13-hexahydroazocino[4′,3′:4,5]pyrrolo[2,1-a]isoquinolin-8(9H)-one] it is 3.24 nM.
Under `COc1cc2c(cc1C#N)-c1c(-c3cccs3)c3c(n1CC2)C(=O)N(C(C)(C)C)CCCC3` [Compound 20h, 9-tert-butyl-14-(thien-2-yl)-3-methoxy-5,6,10,11,12,13-hexahydroazocino[4′,3′:4,5]pyrrolo[2,1-a]isoquinolin-8(9H)-one-2-carbonitrile] stands 1.78 nM.
The figure for `COc1cc2c(cc1[C@H](O)[C@@H](O)CO)-c1c(-c3cccs3)c3c(n1CC2)C(=O)N(C(C)(C)C)CCCC3` [Compound 21h, (1S,2S)-1-(9-tert-butyl-14-(thien-2-yl)-3-methoxy-5,6,10,11,12,13-hexahydroazocino[4′,3′:4,5]pyrrolo[2,1-a]isoquinolin-8(9H)-on-2-yl)propane-1,2,3-triol] is 5.5 nM.
Consider `COc1cc2c(cc1CCCO)-c1c(-c3cccs3)c3c(n1CC2)C(=O)N(C(C)(C)C)CCCC3` [Compound 21j, 3-(9-tert-butyl-14-(thien-2-yl)-3-methoxy-5,6,10,11,12,13-hexahydroazocino[4′,3′:4,5]pyrrolo[2,1-a]isoquinolin-8(9H)-on-2-yl)propan-1-ol], for which the EC50 is 0.251 nM.
The figure for `COc1cc2c(cc1NC(=O)CN(C)C)-c1c(-c3cccs3)c3c(n1CC2)C(=O)N(C(C)(C)C)CCCC3` [Compound 22b, 2-dimethylamino-N-(9-tert-butyl-14-(thien-2-yl)-3-methoxy-5,6,10,11,12,13-hexahydroazocino[4′,3′:4,5]pyrrolo[2,1-a]isoquinolin-8(9H)-on-2-yl)acetamide] is 4.68 nM.
The figure for `COc1cc2c(cc1NC(=O)CN1CC(O)C1)-c1c(-c3cccs3)c3c(n1CC2)C(=O)N(C(C)(C)C)CCCC3` [Compound 22c, 2-(3-hydroxyazetidin-1-yl)-N-(9-tert-butyl-14-(thien-2-yl)-3-methoxy-5,6,10,11,12,13-hexahydroazocino[4′,3′:4,5]pyrrolo[2,1-a]isoquinolin-8(9H)-on-2-yl)acetamide] is 1.26 nM.
Under `CCN1CCN(CC(=O)Nc2cc3c(cc2OC)CCn2c4c(c(-c5cccs5)c2-3)CCCCN(C(C)(C)C)C4=O)CC1` [Compound 22d, 2-(4-ethylpiperazin-1-yl)-N-(9-tert-butyl-14-(thien-2-yl)-3-methoxy-5,6,10,11,12,13-hexahydroazocino[4′,3′:4,5]pyrrolo[2,1-a]isoquinolin-8(9H)-on-2-yl)acetamide] stands 3.31 nM.
For the compound `CC[S+]([O-])c1cc2c(cc1OC)CCn1c3c(c(Br)c1-2)CCCCN(C(C)(C)C)C3=O` (stereo not shown) [Compound 23d, 9-tert-butyl-14-bromo-2-ethylsulfinyl-3-methoxy-5,6,10,11,12,13-hexahydroazocino[4′,3′:4,5]pyrrolo[2,1-a]isoquinolin-8(9H)-one], the EC50 is 245 nM.
The figure for `CCS(=O)(=O)c1cc2c(cc1OC)CCn1c3c(c(Br)c1-2)CCCCN(C(C)(C)C)C3=O` [Compound 23e, 9-tert-butyl-14-bromo-2-ethylsulfonyl-3-methoxy-5,6,10,11,12,13-hexahydroazocino[4′,3′:4,5]pyrrolo[2,1-a]isoquinolin-8(9H)-one] is 155 nM; for `CCS(=O)(=O)c1cc2c(cc1OC)CCn1c3c(c(-c4cccs4)c1-2)CCCCN(C(C)(C)C)C3=O` [Compound 23f, 9-tert-butyl-14-(thien-2-yl)-2-ethylsulfonyl-3-methoxy-5,6,10,11,12,13-hexahydroazocino[4′,3′:4,5]pyrrolo[2,1-a]isoquinolin-8(9H)-one] it is 1.82 nM; for `CCS(=O)(=O)c1cc2c(cc1OC)CCn1c3c(c(-c4cncs4)c1-2)CCCCN(C(C)(C)C)C3=O` [Compound 23g, 9-tert-butyl-14-(thiazol-5-yl)-2-ethylsulfonyl-3-methoxy-5,6,10,11,12,13-hexahydroazocino[4′,3′:4,5]pyrrolo[2,1-a]isoquinolin-8(9H)-one] it is 10.7 nM.
The figure for `COc1cc2c(cc1-c1cccnc1)-c1c(-c3cccs3)c3c(n1CC2)C(=O)N(C(C)(C)C)CCC(C)(C)C3` [Compound 24k, 9-tert-butyl-12,12-dimethyl-3-methoxy-2-pyridin-3-yl-14-(2-thienyl)-5,6,10,11,12,13-hexahydroazocino[4′,3′:4,5]pyrrolo[2,1-a]isoquinolin-8(9H)-one] is 389 nM; for `COc1cc2c(cc1-c1cccnc1)-c1c(C3=CCOCC3)c3c(n1CC2)C(=O)N(C(C)(C)C)CCCC3` [Compound 25c, 9-tert-butyl-2-(3-pyridyl)-14-(3,6-dihydro-2H-pyran-4-yl)-3-methoxy-5,6,10,11,12,13-hexahydroazocino[4′,3′:4,5]pyrrolo[2,1-a]isoquinolin-8(9H)-one] it is 6.31 nM.
In the case of `COc1cc2c(cc1-c1cccnc1)-c1c(C3=CCSCC3)c3c(n1CC2)C(=O)N(C(C)(C)C)CCCC3` [Compound 25d, 9-tert-butyl-2-(3-pyridyl)-14-(3,6-dihydro-2H-thiopyran-4-yl)-3-methoxy-5,6,10,11,12,13-hexahydroazocino[4′,3′:4,5]pyrrolo[2,1-a]isoquinolin-8(9H)-one], the EC50 is 10.7 nM.
The figure for `COC(=O)c1cc2c(cc1OC)CCn1c3c(c(-c4cccs4)c1-2)CCCCN(C(C)(C)C)C3=O` [Compound 26a, methyl 9-tert-butyl-3-methoxy-14-(thiophen-2-yl)-5,6,10,11,12,13-hexahydroazocino[4′,3′:4,5]pyrrolo[2,1-a]isoquinolin-8(9H)-one-2-carboxylate] is 1 nM; for `COc1cc2c(cc1C(=O)O)-c1c(-c3cccs3)c3c(n1CC2)C(=O)N(C(C)(C)C)CCCC3` [Compound 26b, 9-tert-butyl-3-methoxy-14-(thiophen-2-yl)-5,6,10,11,12,13-hexahydroazocino[4′,3′:4,5]pyrrolo[2,1-a]isoquinolin-8(9H)-one-2-carboxylic acid] it is 44.7 nM.
Under `COc1cc2c(cc1C(=O)NCCN1CCOCC1)-c1c(-c3cccs3)c3c(n1CC2)C(=O)N(C(C)(C)C)CCCC3` [Compound 26c1, 9-tert-butyl-3-methoxy-N^2-(2-morpholinoethyl)-14-(thiophen-2-yl)-5,6,10,11,12,13-hexahydroazocino[4′,3′:4,5]pyrrolo[2,1-a]isoquinolin-8(9H)-one-2-carboxamide] stands 1.78 nM.

Source of the values: patent publication US8431564B2 (Merck Sharp & Dohme B.V., priority 2009, dated 2013).
